Source: ChEMBL document CHEMBL3988442, “University of Dundee, Small-Polar-MMV Screening Library” (2021)
“And” between values parts separate entries of the source, which are not always exact repeats. Equal entries are not always repeated.

Tests used:
Wolbachia pipientis = assay: Anti-Wolbachia Cell-Based Screen; assay type: functional; conditions: for IC50: Wolbachia pipientis
[1] = test system: Mycobacterium tuberculosis; assay: Cornell M. t heat shock assay; assay type: functional, organism-based
[2] = microbe, parasite or virus in culture; conditions: Mycobacterium tuberculosis, 72 h, read-out: pIC50 (converted)
[3] = microbe, parasite or virus in culture; conditions: Mycobacterium tuberculosis, 96 h, read-out: pIC50 (converted)
Histidine--tRNA ligase = target: T1, Histidine--tRNA ligase (Leishmania infantum, UniProt A4I591); assay: Leishmania infantum Histidine tRNA synthetase (LdHisRS); assay type: functional
T1 sequence (A4I591 whole entry): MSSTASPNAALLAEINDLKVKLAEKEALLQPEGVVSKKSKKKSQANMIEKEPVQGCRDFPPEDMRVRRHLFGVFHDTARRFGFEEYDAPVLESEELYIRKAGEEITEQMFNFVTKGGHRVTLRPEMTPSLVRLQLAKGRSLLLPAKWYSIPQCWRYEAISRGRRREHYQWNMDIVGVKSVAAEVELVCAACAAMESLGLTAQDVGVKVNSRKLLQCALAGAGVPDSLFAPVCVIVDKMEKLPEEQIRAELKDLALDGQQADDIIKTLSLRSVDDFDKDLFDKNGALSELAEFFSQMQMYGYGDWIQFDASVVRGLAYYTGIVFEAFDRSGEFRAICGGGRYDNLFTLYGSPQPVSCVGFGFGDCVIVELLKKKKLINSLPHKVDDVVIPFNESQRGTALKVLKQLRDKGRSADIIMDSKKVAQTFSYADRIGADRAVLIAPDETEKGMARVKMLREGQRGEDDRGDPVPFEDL

Lysine--tRNA ligase = Lysine--tRNA ligase (Plasmodium falciparum (isolate 3D7), UniProt Q8IDJ8); assay: Pf-KRS-1 (Lysyl-RNA Synthetase-1, KRS-1, cytosolic KRS) from Plasmodium falciparum. Inhibitor assay, 384 well plate, luminescence read.; assay type: functional
Lysine--tRNA ligase, sequence (Q8IDJ8 whole entry): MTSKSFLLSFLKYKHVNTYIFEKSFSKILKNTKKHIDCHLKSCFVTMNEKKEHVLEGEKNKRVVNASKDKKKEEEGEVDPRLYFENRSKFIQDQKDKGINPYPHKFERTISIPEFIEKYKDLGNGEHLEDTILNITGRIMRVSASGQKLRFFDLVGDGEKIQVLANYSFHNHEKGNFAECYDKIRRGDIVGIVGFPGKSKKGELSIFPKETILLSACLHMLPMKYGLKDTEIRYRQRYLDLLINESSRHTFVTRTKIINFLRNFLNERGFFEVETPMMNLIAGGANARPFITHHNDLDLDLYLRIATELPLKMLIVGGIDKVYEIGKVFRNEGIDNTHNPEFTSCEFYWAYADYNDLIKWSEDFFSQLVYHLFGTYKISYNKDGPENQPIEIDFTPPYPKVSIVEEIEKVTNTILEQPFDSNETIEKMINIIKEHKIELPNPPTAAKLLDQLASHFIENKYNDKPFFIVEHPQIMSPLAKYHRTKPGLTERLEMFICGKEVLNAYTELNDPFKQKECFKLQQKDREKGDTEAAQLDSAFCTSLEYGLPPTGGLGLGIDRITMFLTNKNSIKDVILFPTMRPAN

[4] = target: Polyketide synthase Pks13 (Mycobacterium tuberculosis (strain ATCC 25618 / H37Rv), UniProt I6X8D2); assay: Mycobacterium tuberculosis Polyketide synthase 13 Thioesterase (PKS13); assay type: functional
Polyketide synthase Pks13, sequence (I6X8D2 whole entry): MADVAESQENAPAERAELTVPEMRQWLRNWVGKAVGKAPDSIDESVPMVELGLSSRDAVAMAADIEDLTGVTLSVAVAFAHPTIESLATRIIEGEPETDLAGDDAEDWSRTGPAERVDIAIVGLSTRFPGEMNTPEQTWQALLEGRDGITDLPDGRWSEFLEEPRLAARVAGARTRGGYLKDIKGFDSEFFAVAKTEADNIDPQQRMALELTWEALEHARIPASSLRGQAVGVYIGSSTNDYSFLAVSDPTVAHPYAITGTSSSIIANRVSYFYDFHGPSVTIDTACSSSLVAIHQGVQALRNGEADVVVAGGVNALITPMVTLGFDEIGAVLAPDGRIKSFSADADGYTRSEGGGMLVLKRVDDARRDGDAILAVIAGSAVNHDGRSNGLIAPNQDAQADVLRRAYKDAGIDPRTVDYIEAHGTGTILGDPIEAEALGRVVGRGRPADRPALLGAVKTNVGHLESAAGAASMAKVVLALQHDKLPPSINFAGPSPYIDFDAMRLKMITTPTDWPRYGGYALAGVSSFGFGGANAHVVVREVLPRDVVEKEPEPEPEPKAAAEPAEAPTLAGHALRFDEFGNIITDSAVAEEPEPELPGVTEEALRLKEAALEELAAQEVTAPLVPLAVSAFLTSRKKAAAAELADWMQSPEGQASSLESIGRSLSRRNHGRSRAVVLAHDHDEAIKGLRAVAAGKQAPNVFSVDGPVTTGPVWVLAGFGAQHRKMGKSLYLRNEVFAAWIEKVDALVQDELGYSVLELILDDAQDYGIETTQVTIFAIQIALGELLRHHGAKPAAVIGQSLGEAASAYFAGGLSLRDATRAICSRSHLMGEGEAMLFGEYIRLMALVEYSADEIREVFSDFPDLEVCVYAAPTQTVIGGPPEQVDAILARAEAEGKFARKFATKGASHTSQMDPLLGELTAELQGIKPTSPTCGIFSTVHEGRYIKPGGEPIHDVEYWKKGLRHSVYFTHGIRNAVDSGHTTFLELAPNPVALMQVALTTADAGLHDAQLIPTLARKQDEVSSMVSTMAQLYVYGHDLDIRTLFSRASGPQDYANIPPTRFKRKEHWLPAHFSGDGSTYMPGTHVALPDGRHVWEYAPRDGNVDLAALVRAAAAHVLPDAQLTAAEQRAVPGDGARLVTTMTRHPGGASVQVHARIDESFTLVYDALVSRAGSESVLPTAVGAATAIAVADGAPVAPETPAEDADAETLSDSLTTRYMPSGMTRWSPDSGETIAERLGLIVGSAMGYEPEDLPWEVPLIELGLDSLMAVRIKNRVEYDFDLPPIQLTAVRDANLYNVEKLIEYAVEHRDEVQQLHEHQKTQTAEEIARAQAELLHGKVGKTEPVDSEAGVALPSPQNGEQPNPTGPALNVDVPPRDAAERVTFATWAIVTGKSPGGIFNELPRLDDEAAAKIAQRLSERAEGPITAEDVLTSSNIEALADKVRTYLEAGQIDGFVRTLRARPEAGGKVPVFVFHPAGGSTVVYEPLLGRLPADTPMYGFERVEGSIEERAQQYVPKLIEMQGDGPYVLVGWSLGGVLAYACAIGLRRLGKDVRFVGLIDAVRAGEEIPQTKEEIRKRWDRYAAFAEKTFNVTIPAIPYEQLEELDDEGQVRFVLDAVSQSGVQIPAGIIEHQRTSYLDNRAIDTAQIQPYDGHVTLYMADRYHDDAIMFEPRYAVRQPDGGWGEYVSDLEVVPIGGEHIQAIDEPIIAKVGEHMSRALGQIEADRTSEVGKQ

ClpP1P2 = ClpP1P2 (Mycobacterium tuberculosis (strain ATCC 25618 / H37Rv), UniProt P9WPC3+P9WPC5); assay: in vitro assay to detect presence of AMC directly proportional to the activity of ClpP1P2. GHDDI collaboration.; assay type: functional
ClpP1P2, sequence (P9WPC5 whole entry): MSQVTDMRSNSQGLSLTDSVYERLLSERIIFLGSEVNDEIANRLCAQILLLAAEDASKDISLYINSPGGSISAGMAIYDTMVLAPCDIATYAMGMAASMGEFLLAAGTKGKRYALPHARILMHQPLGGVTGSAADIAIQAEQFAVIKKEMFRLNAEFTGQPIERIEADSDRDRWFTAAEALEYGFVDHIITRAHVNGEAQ
ClpP1P2, sequence (P9WPC3 whole entry): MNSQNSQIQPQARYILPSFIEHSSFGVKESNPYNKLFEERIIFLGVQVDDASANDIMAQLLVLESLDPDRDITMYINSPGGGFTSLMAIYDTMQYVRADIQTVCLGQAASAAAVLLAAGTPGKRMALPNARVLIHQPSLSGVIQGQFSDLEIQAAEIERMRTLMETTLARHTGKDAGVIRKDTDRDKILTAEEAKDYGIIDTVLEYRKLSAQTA

SMILES | IC50 (Wolbachia pipientis) [µM] | also measured
NC(=O)C1CCN(c2nc3nccc(-c4ccccn4)c3c(=O)[nH]2)CC1 | > 10 | 
O=C(CC1CC1)NCc1cc(=O)n2c(n1)CN(Cc1ccoc1)CCC2 | > 10 | 
COc1ccc(C(C)N(C)Cc2c(C(C)C)[nH]c3ncccc23)cc1 (stereo unspecified) | > 10 | 
CCCN1CCC(c2cc(CCOc3ccc(C(F)(F)F)cc3)[nH]n2)C1 (stereo unspecified) |  | pIC50 [1]: < 4 and 4.339
CC1CCCN(c2ncc(-c3ccccc3F)c(-c3nccn3C)n2)C1 (stereo unspecified) |  | pIC50 [1]: 4.289 and 4.7
c1cc(CN2CCCCC2c2ccc(Nc3cnccn3)nc2)ccn1 (stereo unspecified) |  | pIC50 [1]: < 4 and < 4.31
Fc1ccc(CN2CCCC(c3cc4ncccc4[nH]3)C2)cc1 (stereo unspecified) | 6.78 | IC50 [2]: 33.7 µM; pIC50 (Wolbachia pipientis): 5.047; IC50 [3]: 24.3 µM
CC1(C(=O)N2CCN(c3ncccn3)CC2)CNCCO1 (stereo unspecified) | > 10 | 
CN(C)c1ncc(I)c(C2CCCCN2S(C)(=O)=O)n1 (stereo unspecified) | > 10 | 
O=C1CO[C@H]2CN(Cc3cccc4[nH]ccc34)C[C@@H]2N1C1CCOCC1 |  | pIC50 [1]: 4.298; IC50 ([1]; Mycobacterium tuberculosis): > 100 µM
CNC(=O)c1cn[nH]c1C1(C)CCCN(Cc2nccn2C(C)C)C1 (stereo unspecified) | > 10 | 
Cc1csc(Nc2nccnc2C2CCCN2S(C)(=O)=O)n1 (stereo unspecified) | > 10 | 
COCCCN1Cc2cccc(NC(=O)C(C)(C)C)c2C1 | > 10 | 
CCOc1nnc(CN2CCN(CCOC)CC2)s1 | > 10 | 
CC(CNC1CCN(c2ccccn2)CC1)Oc1ccc(F)cc1 (stereo unspecified) | > 10 | 
CC(C)C(=O)Nc1ccc(C(O)Cn2nc(-c3cccs3)oc2=O)cc1 (stereo unspecified) | > 10 | 
O=c1oc(-c2cccs2)nn1CC(O)c1ccc2c(c1)CCC2 (stereo unspecified) | > 10 | 
CCc1sc(C(=O)NC2CC2)cc1C | > 10 | 
COc1ccc(Br)c(C(=O)NCC2CC2)c1 | > 10 | 
O=C(NCCN1CCOCC1)N(CCCO)C1CCCc2ccccc21 (stereo unspecified) | > 10 | 
COc1c(CNCC(O)COc2ccc3c(c2)OCO3)c(C)nn1C (stereo unspecified) | > 10 | 
CC(C)Cn1ncc2cc(C(=O)N(C)CCc3ccccc3)cnc21 | > 10 | 

SMILES | IC50 (Wolbachia pipientis) [µM] | also measured
CC(C)Cn1ncc2cc(C(=O)N(C)Cc3cccc(O)c3)cnc21 | > 10 | 
CC(C)N(C(=O)c1csc(-c2ccoc2)n1)C1CCOCC1 | > 10 | 
CC(c1ccco1)N(C(=O)c1cc2c([nH]c1=O)CCCC2=O)C1CC1 (stereo unspecified) | > 10 | 
CCC(C)n1cnc(S(=O)(=O)N(Cc2cccnc2)C(C)C)c1 (stereo unspecified) | > 10 | 
COc1ccc(CC(=O)N(C)c2cccnc2N(C)C)c(Cl)c1 | 4.83 | IC50 (Histidine--tRNA ligase): 19.4 µM and 16.5 µM; pIC50 (Wolbachia pipientis): 5.287; IC50 (Lysine--tRNA ligase): > 50.1 µM
COc1ccccc1OCCN(C)c1cc(C)nc(N)n1 | > 10 | 
CCc1ccc(CN(C(=O)CCn2cc(S(N)(=O)=O)cn2)C2CC2)cc1 | > 10 | 
NS(=O)(=O)c1cnn(CCC(=O)N(Cc2ccccc2)C2CC2)c1 | > 10 | 
CN(C)c1cc(CNCc2ccc(N3CCOCC3)cc2)ccn1 | > 10 | 
N#Cc1cc(F)c(NCc2ccc(F)cc2)c(F)c1 | > 10 | 
Cn1cc(CN2C[C@@H]3CCC[C@@H](OCc4cccnc4)[C@@H]3C2)cn1 | > 10 | 
CCCNC(=O)c1ncn2c1CN(CC(C)C)S(=O)(=O)c1ccccc1-2 | > 10 | 
CN(C)C(=O)[C@H]1C[C@@H]2CN(S(=O)(=O)Cc3ccccc3)C[C@H]1O2 | > 10 | 
OC1(CN2CCC(Oc3cccc(C(F)(F)F)c3)CC2)CNCCOC1 (stereo unspecified) | > 10 | 
O=C1[C@H]2CC[C@H](CN(c3ncnc4ccsc34)C2)N1CC1CC1 | 5.55 | IC50 [4]: > 100 µM; IC50 [2]: > 50.1 µM; pIC50 (Wolbachia pipientis): 5.348; IC50 [3]: > 50.1 µM
COc1ncccc1C(=O)N1CCc2c(ncnc2N2CCOCC2)C1 | > 10 | 
CCn1cc(-c2cc(-c3cc(CN(C)C)cs3)nc(N)c2C#N)c(C)n1 | > 10 | IC50 [4]: 24.7 µM and 11 µM; IC50 (ClpP1P2): > 100 µM
Cc1cc(CN2CCCC2)cc(Oc2nc(C)cnc2C)c1 | > 10 | 
Cc1c(CNCC(C)Oc2cccnc2)c2ccccc2n1CC(N)=O (stereo unspecified) | > 10 | 
CC1CCCN1Cc1cccc(C(=O)Nc2ccc3c(c2)CCC3=O)c1 (stereo unspecified) | > 10 | 
O=C1O[C@@H]2CN(C3CCOCC3)C[C@@H]2N1CCCc1ccc(F)cc1 | > 10 | 
